Source: US8710233B2 (Gruenenthal GmbH, priority 2005, dated 2014)
Like-named read-outs stand apart in the source and are kept apart here.

How the values were obtained:
[1] = target: T1, vanilloid receptor 1 (VR1/TRPV1) of the rat species (Rattus norvegicus, UniProt O35433); assay: FLIPR Ca2+ influx assay on rat dorsal root ganglia cells (pharmacological method I); format: cell-based; conditions: table 4, capsaicin
T1 construct: The spinal column is removed from decapitated rats; from tissue; host or cells: primary cells dissociated from rat dorsal root ganglia
T1 sequence (O35433 whole entry): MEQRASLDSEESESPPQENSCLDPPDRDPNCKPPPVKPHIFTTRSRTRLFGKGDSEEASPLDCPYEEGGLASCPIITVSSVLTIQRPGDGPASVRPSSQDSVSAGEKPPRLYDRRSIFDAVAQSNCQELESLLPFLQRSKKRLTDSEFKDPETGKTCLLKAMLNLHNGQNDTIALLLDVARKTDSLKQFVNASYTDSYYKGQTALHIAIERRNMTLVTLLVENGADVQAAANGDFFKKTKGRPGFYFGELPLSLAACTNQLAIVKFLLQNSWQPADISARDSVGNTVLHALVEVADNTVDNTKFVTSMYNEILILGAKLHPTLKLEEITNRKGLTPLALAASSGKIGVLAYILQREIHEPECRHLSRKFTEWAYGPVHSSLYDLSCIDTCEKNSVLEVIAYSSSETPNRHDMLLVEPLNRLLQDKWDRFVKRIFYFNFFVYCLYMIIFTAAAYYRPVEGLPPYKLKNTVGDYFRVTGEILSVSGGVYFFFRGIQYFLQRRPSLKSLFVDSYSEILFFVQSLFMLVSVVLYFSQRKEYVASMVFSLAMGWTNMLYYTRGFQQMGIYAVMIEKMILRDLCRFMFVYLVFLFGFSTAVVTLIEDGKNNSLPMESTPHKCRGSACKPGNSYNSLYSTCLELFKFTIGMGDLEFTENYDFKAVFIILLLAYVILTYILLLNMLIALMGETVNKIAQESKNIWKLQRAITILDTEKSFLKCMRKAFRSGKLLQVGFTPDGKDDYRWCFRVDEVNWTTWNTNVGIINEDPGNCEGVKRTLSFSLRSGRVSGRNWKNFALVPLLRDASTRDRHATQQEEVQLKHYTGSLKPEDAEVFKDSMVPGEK
Procedure, shortened: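 Primary rat dorsal root ganglion cells loaded with 2 μM Fluo-4, Ca2+ influx read on FLIPR as peak fluorescence. Triplicates, at least 3 independent experiments.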

[2] = target: T2, vanilloid receptor (VR1) (Homo sapiens, UniProt Q8NER1); assay: FLIPR Ca2+ influx assay on CHO K1 cells transfected with the VR1 gene (pharmacological method II); format: cell-based; conditions: table 4; capsaicin; read-out: Ki (human) Cap.
T2 construct: expressed in transfected cells; host or cells: CHO K1 cells (ECACC), stably transfected
T2 sequence (Q8NER1 whole entry): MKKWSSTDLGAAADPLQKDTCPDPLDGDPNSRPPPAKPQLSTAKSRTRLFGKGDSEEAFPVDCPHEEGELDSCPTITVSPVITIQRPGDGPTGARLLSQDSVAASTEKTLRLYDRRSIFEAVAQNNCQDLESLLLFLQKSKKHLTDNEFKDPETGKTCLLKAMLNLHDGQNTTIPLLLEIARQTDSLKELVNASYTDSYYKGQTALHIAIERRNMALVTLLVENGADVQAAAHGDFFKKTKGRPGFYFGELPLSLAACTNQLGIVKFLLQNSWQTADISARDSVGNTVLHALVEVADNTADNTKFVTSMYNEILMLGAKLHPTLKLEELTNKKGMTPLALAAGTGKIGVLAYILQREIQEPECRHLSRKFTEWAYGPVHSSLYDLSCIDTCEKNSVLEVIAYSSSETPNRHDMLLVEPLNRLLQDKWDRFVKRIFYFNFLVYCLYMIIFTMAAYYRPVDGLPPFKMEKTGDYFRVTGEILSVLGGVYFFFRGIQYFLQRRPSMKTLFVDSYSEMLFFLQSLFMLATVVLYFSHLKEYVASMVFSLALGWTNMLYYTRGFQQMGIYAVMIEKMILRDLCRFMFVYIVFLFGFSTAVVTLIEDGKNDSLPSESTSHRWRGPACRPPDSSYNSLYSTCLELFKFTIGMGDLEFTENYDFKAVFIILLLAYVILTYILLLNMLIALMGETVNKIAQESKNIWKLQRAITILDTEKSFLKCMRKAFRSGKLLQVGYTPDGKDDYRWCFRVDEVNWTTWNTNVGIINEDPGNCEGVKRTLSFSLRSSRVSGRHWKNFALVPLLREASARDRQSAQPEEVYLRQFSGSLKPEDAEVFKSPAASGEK

[3] = target: VR1/TRPV1 receptor (Homo sapiens, UniProt Q8NER1); assay: IC50 (human) after pH stimulus; format: cell-based; conditions: table 4
VR1/TRPV1 receptor, sequence (Q8NER1 whole entry): as above

[4] = system: capsaicin induced hypothermie; assay: Hypothermie assay in the mouse (capsaicin induced hypothermie); format: in vivo
[5] = system: formaldehyde induced nociceptive behaviour; assay: Formaldehyde test in mice, second (late) phase; format: in vivo, mouse; conditions: mouse; for inhibition in vivo at 0.1 mg/kg: 0.1 mg/kg body weight po; for inhibition in vivo at 0.1 mg/kg / inhibition in vivo at 0.3 mg/kg: read-out: inhibition formaldehyde test (n = 10)
[6] = 0.3 mg/kg body weight po, mouse, read-out: inhibition hypothermie (n = 5)

| Structure (SMILES) | Ki ([1]; read-out: Ki (rat) Cap.) | Ki [2] | IC50 [3] | Ki ([1]; Ki (rat) Cap.) | inhibition in vivo at 0.3 mg/kg [4, 6] | inhibition in vivo at 0.1 mg/kg [5] | inhibition hypothermie (n = 5) ([4]; 0.3 mg/kg body weight po, mouse) | inhibition formaldehyde test (n = 10) ([5]; 0.3 mg/kg body weight po) | inhibition in vivo at 0.3 mg/kg ([4]; Mus musculus, po, read-out: inhibition hypothermie (n = 5)) | inhibition in vivo at 0.3 mg/kg ([5]; 0.3 mg/kg body weight po) | inhibition in vivo at 0.1 mg/kg ([4]; 0.1 mg/kg body weight po, mouse, read-out: inhibition hypothermie (n = 5)) |
| --- | --- | --- | --- | --- | --- | --- | --- | --- | --- | --- | --- |
| CC1CCN(c2nc(C(F)(F)F)ccc2CNC(=O)C(C)c2ccc(NS(C)(=O)=O)c(F)c2)CC1 (stereo not shown) [Example 80, 2-(3-fluoro-4-methylsulfonamido-phenyl)-N-(2-4-methylpiperidin-1-yl-6-trifluoromethyl-pyridin-3-ylmethyl)-propionamide] | 0.6 nM | 0.3 nM | 5.4 nM |  |  |  |  |  | 66% | 58% |  |
| CC(C(=O)NCc1ccc(C(F)(F)F)cc1N1CCCCCCC1)c1ccc(NS(C)(=O)=O)c(F)c1 (stereo not shown) [Example 217, N-(2-azocan-1-yl-4-trifluoromethyl-benzyl)-2-(3-fluoro-4-methylsulfonamido-phenyl)-propionamide] | 1.1 nM | 2.8 nM | 36.5 nM |  |  |  |  |  |  | 9% | 40% |
| CCC1CCC(Oc2nc(C(F)(F)F)ccc2CNC(=O)C(C)c2ccc(NS(C)(=O)=O)c(F)c2)CC1 (stereo not shown) [Example 171, N-[2-(4-ethyl-cyclohexyloxy)-6-trifluoromethyl-pyridin-3-ylmethyl]-2-(3-fluoro-4-methylsulfonamido-phenyl)-propionamide] |  | 4.8 nM | 125 nM | 2.4 nM | 32% |  |  |  |  | 45% |  |
| CCCCOC1CCN(c2nc(C(F)(F)F)ccc2CNC(=O)C(C)c2ccc(NS(C)(=O)=O)c(F)c2)CC1 (stereo not shown) [Example 160, N-(4-butoxy-6′-trifluoromethyl-3,4,5,6-tetrahydro-2H-[1,2′]bipyridinyl-3′-ylmethyl)-2-(3-fluoro-4-methylsulfonamido-phenyl)-propionamide] | 3 nM | 3.5 nM | 28.2 nM |  | 28% |  |  |  |  | 10% |  |
| CC(C(=O)NCc1ccc(C(F)(F)F)nc1NC1CCCCC1)c1ccc(NS(C)(=O)=O)c(F)c1 (stereo not shown) [Example 90, N-(2-cyclohexylamino-6-trifluoromethyl-pyridin-3-ylmethyl)-2-(3-fluoro-4-methylsulfonamido-phenyl)-propionamide] | 47 nM | 20.4 nM | 260 nM |  | 81% |  |  |  |  | 46% |  |
| CC(C(=O)NCc1ccc(C(F)(F)F)cc1N1CCCCCC1)c1ccc(NS(C)(=O)=O)c(F)c1 (stereo not shown) [Example 174, N-(2-azepan-1-yl-4-trifluoromethyl-benzyl)-2-(3-fluoro-4-methylsulfonamido-phenyl)-propionamide] | 1.4 nM | 1.6 nM | 64.5 nM |  | 39% |  |  |  |  | 5% |  |
| CCCCOc1cc(C(C)(C)C)ccc1CNC(=O)C(C)c1ccc(NS(C)(=O)=O)c(F)c1 (stereo not shown) [Example 108, N-(2-butoxy-4-tert-butyl-benzyl)-2-(3-fluoro-4-methylsulfonamido-phenyl)-propionamide] | 0.6 nM | 1.4 nM | 114 nM |  | 38% |  |  |  |  | 15% |  |
| COC1CCN(c2nc(C(F)(F)F)ccc2CNC(=O)C(C)c2ccc(NS(C)(=O)=O)c(F)c2)CC1 (stereo not shown) [Example 159, 2-(3-fluoro-4-methylsulfonamido-phenyl)-N-(4-methoxy-6′-trifluoromethyl-3,4,5,6-tetrahydro-2H-[1,2′]bipyridinyl-3′-ylmethyl)-propionamide] | 21.4 nM | 2.4 nM | 280 nM |  | 28% |  |  |  |  | 10% |  |
| CC(C(=O)NCc1ccc(C(F)(F)Cl)nc1OCc1ccccn1)c1ccc(NS(C)(=O)=O)c(F)c1 (stereo not shown) [Example 182, N-[6-(chloro-difluoro-methyl)-2-(pyridin-2-ylmethoxy)-pyridin-3-ylmethyl]-2-(3-fluoro-4-methylsulfonamido-phenyl)-propionamide] | 7.3 nM | 4.2 nM | 637 nM |  | 45% |  |  |  |  | 1% |  |
| CC(C(=O)NCc1ccc(C(F)(F)F)nc1N1CCN(c2ccc(F)cc2)CC1)c1ccc(NS(C)(=O)=O)c(F)c1 (stereo not shown) [Example 179, 2-(3-fluoro-4-methylsulfonamido-phenyl)-N-{2-[4-(4-fluoro-phenyl)-piperazin-1-yl]-6-trifluoromethyl-pyridin-3-ylmethyl}-propionamide] | 1 nM | 1.1 nM | 23.1 nM |  | 57% |  |  |  |  | 5% |  |

Further molecules by falling Ki [2], results first:

| Ki ([1]; read-out: Ki (rat) Cap.) | Ki [2] | IC50 [3] | Ki ([1]; Ki (rat) Cap.) | Structure (SMILES) | inhibition in vivo at 0.3 mg/kg [4, 6] | inhibition in vivo at 0.1 mg/kg [5] | inhibition hypothermie (n = 5) ([4]; 0.3 mg/kg body weight po, mouse) | inhibition formaldehyde test (n = 10) ([5]; 0.3 mg/kg body weight po) | inhibition in vivo at 0.3 mg/kg ([4]; Mus musculus, po, read-out: inhibition hypothermie (n = 5)) | inhibition in vivo at 0.3 mg/kg ([5]; 0.3 mg/kg body weight po) | inhibition in vivo at 0.1 mg/kg ([4]; 0.1 mg/kg body weight po, mouse, read-out: inhibition hypothermie (n = 5)) |
| --- | --- | --- | --- | --- | --- | --- | --- | --- | --- | --- | --- |
| 1.2 nM | 0.9 nM | 101 nM |  | CC(C(=O)NCc1ccc(C(F)(F)F)nc1SC1CCCCC1)c1ccc(NS(C)(=O)=O)c(F)c1 (stereo not shown) [Example 126] | 0% | 20% |  |  |  |  |  |
| 0.7 nM | 0.9 nM | 16.2 nM |  | CC1CCN(c2cc(C(F)(F)F)ccc2CNC(=O)C(C)c2ccc(NS(C)(=O)=O)c(F)c2)CC1 (stereo not shown) [Example 82, 2-(3-Fluor-4-(methylsulfonamido)phenyl)-N-(2-(4-methylpiperidin-1-yl)-4-(trifluoromethyl)benzyl)propanamide] |  |  | 0.3 po 53% | 0.3 po 39% |  |  |  |
| 1.4 nM | 0.9 nM | 17.6 nM |  | CC(C(=O)NCc1ccc(C(F)(F)Cl)nc1OC1CCCCC1)c1ccc(NS(C)(=O)=O)c(F)c1 (stereo not shown) [Example 168, N-[6-(chloro-difluoro-methyl)-2-cyclohexyloxy-pyridin-3-ylmethyl]-2-(3-fluoro-4-methylsulfonamido-phenyl)-propionamide] | 21% |  |  |  |  | 1% |  |
| 2.8 nM | 0.8 nM | 21.3 nM |  | CCCCN(C)c1nc(C(F)(F)F)ccc1CNC(=O)C(C)c1ccc(NS(C)(=O)=O)c(F)c1 (stereo not shown) [Example 167, N-[2-(butyl-methyl-amino)-6-trifluoromethyl-pyridin-3-ylmethyl]-2-(3-fluoro-4-methylsulfonamido-phenyl)-propionamide] | 19% | 62% |  |  |  |  |  |
| 0.5 nM | 0.5 nM | 23.5 nM |  | CC(C(=O)NCc1ccc(C(F)(F)F)nc1-c1ccc(C(C)(C)C)cc1)c1ccc(NS(C)(=O)=O)c(F)c1 (stereo not shown) [Example 117] | 70% |  |  |  |  | 5% |  |
| 1.1 nM | 0.5 nM | 18.5 nM |  | CC(C(=O)NCc1ccc(C(F)(F)Cl)nc1OC1CCCC1)c1ccc(NS(C)(=O)=O)c(F)c1 (stereo not shown) [Example 166, N-[6-(chloro-difluoro-methyl)-2-cyclopentyloxy-pyridin-3-ylmethyl]-2-(3-fluoro-4-methylsulfonamido-phenyl)-propionamide] | 28% |  |  |  |  | 48% |  |
| 5 nM | 0.3 nM | 57.1 nM |  | CC(C(=O)NCc1ccc(C(F)(F)F)nc1-c1cccs1)c1ccc(NS(C)(=O)=O)c(F)c1 (stereo not shown) [Example 88, 2-(3-fluoro-4-methylsulfonamido-phenyl)-N-((6-(trflluoromethyl)-2-(thiophen-2-yl)pyridin-3-yl)methyl)-propionamide] | 38% |  |  |  |  | 4% |  |
